From PubChem BioAssay AID2060902 (Molecular Pharmacology Branch, DTP, NCI, 2025)

Test system: 485368-065-R3-J5-PDC spheroids with HUVEC/MSC, viability
Experiment: Anticancer human tumor 485368-065-R3-J5-PDC patient-derived pancreatic carcinoma cell line growth inhibition [RAS]
Conditions: for IC50: curve of first compound; for viability, T/C: stronger effect = lower value; active means viability on the fitted dose curve at most 10% of control; inactive means the rest
How it was run: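 Agents were tested in combination matrices in half-log decrements from a top concentration at or near clinical Cmax (10 microM if undetermined). Targets were multi-cell spheroids of tumour lines plus HUVEC and MSC stromal cells.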
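Further: spheroids exposed to agents for seven days before readout.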

C=CC(=O)N1CCN(c2nc(OCC3CCCN3C)nc3c(F)c(-c4nc(N)cc(C)c4C(F)(F)F)c(Cl)cc23)C(C)C1 (configuration not stated) + CCn1c(-c2cccnc2C(C)OC)c2c3cc(ccc31)N1CCOC(CC(NC(=O)C(C(C)C)N(C)C(=O)C3(F)CCN(C(=O)C#CC(C)(C)N(C)C)CC3)C(=O)N3CCCC(N3)C(=O)OCC(C)(C)C2)C1
inactive: viability, T/C (second compound 0.000949 µM, first compound 0.00316 µM) 113% | viability, T/C (second compound 0.000949 µM, first compound 0.01 µM) 96% | viability, T/C (second compound 0.000949 µM, first compound 0.0316 µM) 102% | viability, T/C (second compound 0.000949 µM, first compound 0.1 µM) 99.8% | viability, T/C (second compound 0.000949 µM, first compound 0.316 µM) 105% | viability, T/C (second compound 0.000949 µM, first compound 1 µM) 97.5% | viability, T/C (second compound 0.003 µM, first compound 0.00316 µM) 110% | viability, T/C (second compound 0.003 µM, first compound 0.01 µM) 99.5% | viability, T/C (second compound 0.003 µM, first compound 0.0316 µM) 107% | viability, T/C (second compound 0.003 µM, first compound 0.1 µM) 101% | viability, T/C (second compound 0.003 µM, first compound 0.316 µM) 119% | viability, T/C (second compound 0.003 µM, first compound 1 µM) 107% | viability, T/C (second compound 0.00949 µM, first compound 0.00316 µM) 95.9% | viability, T/C (second compound 0.00949 µM, first compound 0.01 µM) 104% | viability, T/C (second compound 0.00949 µM, first compound 0.0316 µM) 97.1% | viability, T/C (second compound 0.00949 µM, first compound 0.1 µM) 103% | viability, T/C (second compound 0.00949 µM, first compound 0.316 µM) 110% | viability, T/C (second compound 0.00949 µM, first compound 1 µM) 104% | viability, T/C (second compound 0.03 µM, first compound 0.00316 µM) 87.6% | viability, T/C (second compound 0.03 µM, first compound 0.01 µM) 99.6% | viability, T/C (second compound 0.03 µM, first compound 0.0316 µM) 97.3% | viability, T/C (second compound 0.03 µM, first compound 0.1 µM) 106% | viability, T/C (second compound 0.03 µM, first compound 0.316 µM) 107% | viability, T/C (second compound 0.03 µM, first compound 1 µM) 108% | viability, T/C (second compound 0.0949 µM, first compound 0.00316 µM) 99.4% | viability, T/C (second compound 0.0949 µM, first compound 0.01 µM) 99.8% | viability, T/C (second compound 0.0949 µM, first compound 0.0316 µM) 108% | viability, T/C (second compound 0.0949 µM, first compound 0.1 µM) 93.9% | viability, T/C (second compound 0.0949 µM, first compound 0.316 µM) 115% | viability, T/C (second compound 0.0949 µM, first compound 1 µM) 93.1% | viability, T/C (second compound 0.3 µM, first compound 0.00316 µM) 96.2% | viability, T/C (second compound 0.3 µM, first compound 0.01 µM) 104% | viability, T/C (second compound 0.3 µM, first compound 0.0316 µM) 95.6% | viability, T/C (second compound 0.3 µM, first compound 0.1 µM) 106% | viability, T/C (second compound 0.3 µM, first compound 0.316 µM) 105% | viability, T/C (second compound 0.3 µM, first compound 1 µM) 94.8%
> 1000 nM: IC50 (second compound 0.000949 µM) | IC50 (second compound 0.003 µM) | IC50 (second compound 0.00949 µM) | IC50 (second compound 0.03 µM) | IC50 (second compound 0.0949 µM) | IC50 (second compound 0.3 µM)
